Where “and” joins values, the source holds several entries; their conditions need not be identical. Equal entries are not always repeated.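 Grown in 96-well plates, cells were treated for 48 hours with each compound at five concentrations. Insufficient inhibition: endpoint recorded as highest concentration tested. GI50: concentration for 50% inhibition of growth. TGI marks complete inhibition of growth.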
Tests used:
Test in all cases: NCI tumour cell line growth inhibition, 48 h
HOP-92 NSCLC = system: HOP-92 NSCLC
HT29 colon = system: HT29 colon
KM12 colon = system: KM12 colon
MOLT-4 leukemia = system: MOLT-4 leukemia
NCI-H460 lung = system: NCI-H460 lung
OVCAR-5 ovarian = system: OVCAR-5 ovarian
OVCAR-8 ovarian = system: OVCAR-8 ovarian
RXF 393 renal = system: RXF 393 renal
SW-620 colon = system: SW-620 colon
UACC-62 melanoma = system: UACC-62 melanoma

SMILES | GI50 (HOP-92 NSCLC) [µM] | TGI (HOP-92 NSCLC) | GI50 (HT29 colon) [µM] | TGI (HT29 colon) | GI50 (KM12 colon) [µM] | TGI (KM12 colon) | GI50 (MOLT-4 leukemia) [µM] | TGI (MOLT-4 leukemia) | GI50 (NCI-H460 lung) | TGI (NCI-H460 lung) [µM] | GI50 (OVCAR-5 ovarian) [µM] | TGI (OVCAR-5 ovarian) | GI50 (OVCAR-8 ovarian) [µM] | TGI (OVCAR-8 ovarian) | GI50 (RXF 393 renal) [µM] | TGI (RXF 393 renal) | GI50 (SW-620 colon) [µM] | TGI (SW-620 colon) | GI50 (UACC-62 melanoma) [µM] | TGI (UACC-62 melanoma)
CCOC(=O)/C(=C/c1ccc([N+](=O)[O-])cc1)C(=O)c1ccccc1 | 2.01 | 4.45 µM | 2.05 | 3.83 µM | 2.16 | 4.65 µM | 3.01 | 9.38 µM | 2.69 µM | 7.15 | 2.55 | 6.93 µM | 3.73 | 12 µM | 2 | 3.67 µM | 2.14 | 4.84 µM | 1.93 | 4.28 µM
N=C1N(c2ccccc2)C(=O)C23CCCC2C13N1CCOCC1 (centres undefined) | – | > 100 µM | – | > 100 µM | – | > 100 µM | – | > 100 µM | – | > 100 | – | > 100 µM | – | > 100 µM | – | > 100 µM | – | > 100 µM | – | > 100 µM
CC(=O)O[C@H]1C(=O)O[C@@H]2C[C@H]3C(C)=CC(=O)[C@@H](O)[C@]3(C)[C@H]3[C@@]4(O)OC[C@]32[C@@H]1[C@@H](C)[C@H]4O | 0.0288 | 0.216 µM and 0.124 µM | 0.0374 | 1.38 µM and 1.26 µM | 0.0178 | 0.317 µM and 0.306 µM | < 0.01 | – | 0.0136 µM and 0.0427 µM | 0.187 | 0.0588 | 1.11 µM and 3.51 µM | 0.0266 | 1.55 µM and 0.218 µM | 0.0481 | 0.503 µM and 0.108 µM | 0.033 | 0.445 µM and 0.653 µM | 0.0271 | 0.531 µM and 0.2 µM
Cc1cc(C)c(O)c(Cc2cccc(Cc3cc(C)cc(C)c3O)c2O)c1 | – | > 100 µM | – | > 100 µM | – | > 100 µM | – | > 100 µM | – | > 100 | – | > 100 µM | – | > 100 µM | – | > 100 µM | – | > 100 µM | – | > 100 µM
C=C1C(=O)O[C@H]2[C@H]1CC/C(Cn1cc(Cn3ccc4ccccc43)nn1)=C\CC[C@@]1(C)O[C@@H]21 | 1.01 | 2.29 µM | 1.7 | 3.27 µM | 4.21 | 15.2 µM | 1.48 | 5.11 µM | 5.66 µM | 19.7 | 1.59 | 3.21 µM | 2.73 | 8.22 µM | 1.41 | 2.82 µM | 1.42 | 3.01 µM | 1.44 | 2.89 µM
CC1(C)OC(C(N)=O)=C(C(N)=O)O1 | – | > 100 µM | – | > 100 µM | – | > 100 µM | – | > 100 µM | – | > 100 | – | > 100 µM | – | > 100 µM | – | > 100 µM | – | > 100 µM | – | > 100 µM
CNNCc1ccc(C(=O)NC(C)C)cc1 | 459 | 391 µM and > 500 µM | – | > 500 µM | – | > 500 µM | > 500 | 426 µM and > 500 µM | – | > 500 | > 500 | > 500 µM | – | > 500 µM | > 500 | > 500 µM | – | > 500 µM | > 500 | 393 µM and > 500 µM
COC(=O)C(=O)C(C(=O)C(=O)Nc1ccc(Cl)cc1C)c1nc2ccc(C(=O)c3ccccc3)cc2[nH]c1=O (centres undefined) | – | > 100 µM | – | > 100 µM | – | > 100 µM | – | > 100 µM | – | > 100 | – | > 100 µM | – | > 100 µM | – | > 100 µM | – | > 100 µM | – | > 100 µM
COC(=O)C(C)NP(=O)(OCc1ccc(Cn2cnc3c(=O)[nH]c(N)nc32)cc1)Oc1ccccc1 (centres undefined) | > 100 | > 100 µM | > 100 | > 100 µM | > 100 | > 100 µM | > 100 | > 100 µM | > 100 µM | > 100 | > 100 | > 100 µM | > 100 | > 100 µM | > 100 | > 100 µM | > 100 | > 100 µM | > 100 | > 100 µM
CCC(C)OC(=O)C1C2CCC(O2)C1C(=O)O (centres undefined) | – | > 100 µM | – | > 66.2 µM | – | > 100 µM | – | > 100 µM | – | > 55.4 | – | > 100 µM | – | > 100 µM | – | > 56.2 µM | – | > 32.1 µM | – | > 100 µM
O=C1/C(=C\C(Cl)=C/c2ccc([N+](=O)[O-])cc2)SC(=S)N1CCc1ccc(O)cc1 | 1.6 | 3.29 µM | 0.429 | 2.28 µM | 0.312 | 1.05 µM | 0.352 | > 100 µM | 1.82 µM | 4.05 | 0.447 | 1.53 µM | 0.414 | 4.2 µM | 0.472 | 1.11 µM | 0.324 | 1.26 µM | 0.566 | 1.86 µM
O=C1C(=O)c2ccccc2-c2ccccc21 | 1.46 | 2.93 µM | 3.4 | > 100 µM | 1.86 | 3.4 µM | 1.56 | 4.75 µM | 1.92 µM | 3.99 | 1.75 | 3.52 µM | 0.662 | 2.15 µM | 1.72 | 3.12 µM | 2.06 | 4.78 µM | 1.52 | 3.03 µM
CCOC(=O)c1c(C)nc2ccc(Cl)cc2c1-c1ccccc1 | 1.52 | 20.8 µM | 16.1 | 75.3 µM | 19.8 | 56.8 µM | 16.3 | 43.4 µM | 20.2 µM | 45.2 | 19.8 | 44.6 µM | 26.7 | > 100 µM | 17.3 | 47.4 µM | 19.2 | 47 µM | 10.7 | 26.6 µM
C=C[C@]1(C)CCC2=C(CCC3C2(C)CCC[C@]3(C)CO)C1 (some centres undefined) | – | > 100 µM | – | 48 µM | – | > 100 µM | – | 84.9 µM | – | > 100 | – | > 100 µM | – | > 100 µM | – | 84.4 µM | – | > 100 µM | – | > 100 µM

From PubChem BioAssay (NCI)
